{
  "source": "patent US12697352B2",
  "about": "“Instructions for composition and sensitivity” (Azura Ophthalmics Ltd., priority 2020, dated 2026)",
  "key": {"patients [1]": {"tested_on": "patients", "settings": "in vivo", "description": "In a first study patients were instructed to dose in both the evening, between visits, and in the daytime during regular scheduled clinic visits as part of the study protocol. Study patients received a 2-week run-in on a placebo which was administered twice weekly for a period of two weeks.\nAdverse events comprise a feeling of grittiness, foreign body feeling, stinging, blurry vision, redness, tired eyes, water eyes, irritation, lid abnormalities, burning, corneal abrasion, photophobia, staining, or dry eye disorder (DED)."}, "[2]": {"settings": "in vivo; cited from earlier work"}, "rabbits": {"tested_on": "rabbits", "settings": "dose about 4 mg SeS2, concentration up to 2.5 wt. %, ointment applied over the eyelid margin"}, "[3]": {"tested_on": "meibomian gland disorder (MGD) patients", "settings": "twice a week, 3 month time point", "description": "The drug was applied twice a week and final evaluation was done at the 3 month time point in which the primary outcome of Meibomian Gland Score (MGS) was assessed."}, "patients [4]": {"tested_on": "patients", "source_text": "In a clinical study three different concentrations were used; 0.1 wt. %, (10 subjects) 0.5 wt. % (12 subjects) and 1 wt. % (26 subjects)."}, "seborrheic blepharitis": {"tested_on": "seborrheic blepharitis", "settings": "cited from earlier work"}, "human subject": {"tested_on": "human subject", "description": "In most instances, the treatment is applied on a biweekly basis, however some patients move to daily application based on prespecified protocol criteria. Because the ointment-based composition is known to mix with tear fluid and cause blurry vision, individuals in this study are advised to apply the treatment prior to bed so as to avoid risks associated with reduced vision acuity. […] The in-office applications are conducted at specific, pre-determined time points. In these instances, the treatment is not applied before bed but rather is performed during daylight hours."}},
  "note": "Like-named read-outs stand apart in the source and are kept apart here.",
  "data": [
    {"substance": "selenium disulfide [SeS2]", "values": [
      {"measurement": "reduction in the incidence of ocular adverse events", "setting": "patients [1]", "value": 75, "unit": "%"},
      {"measurement": "reduction of rate of ocular adverse events (ocular AE)", "setting": "patients [1]", "value": "at least 50%"},
      {"measurement": "adverse effect of shampooing", "setting": "[2]", "value": "diffuse hair loss"},
      {"measurement": "contact dermatitis or photo-contact dermatitis in tinea versicolor treatment", "setting": "[2]", "value": "None of the investigators encountered a single case"},
      {"measurement": "skin irritant effect", "setting": "[2]", "value": "can produce contact dermatitis"},
      {"measurement": "skin reaction after shampoo application", "setting": "[2]", "value": "circumscribed eczematous plaques on the light-exposed areas"},
      {"measurement": "time to resolution of hair loss after discontinuance", "setting": "[2]", "value": "1-2 weeks"},
      {"measurement": "tolerability", "setting": "rabbits", "value": "well tolerated"},
      {"measurement": "average change from baseline in Meibomian Gland Score (MGS)", "setting": "[3]; 9 patients applying with finger", "value": "10 (+/−8.2)"},
      {"measurement": "average change from baseline in Meibomian Gland Score (MGS)", "setting": "[3]; 13 patients using the applicator (swab)", "value": "2.3 (+/−4.4)"},
      {"measurement": "development of keratitis", "setting": "patients [4]; human, in vivo", "value": "no development of keratitis"},
      {"measurement": "occurrence of keratitis with bedtime applications", "setting": "patients [4]; human, in vivo", "value": "without a single occurrence of keratitis"},
      {"measurement": "subjects who developed keratitis or keratitis related symptoms", "setting": "patients [4]; human, in vivo", "value": "four"},
      {"measurement": "total OSDI, VAS and SPEED", "setting": "patients [4]; one patient, 1 wt. %, first month, twice weekly at home before bedtime", "value": "significant improvement"},
      {"measurement": "efficacy in treating seborrheic blepharitis", "setting": "seborrheic blepharitis; SeS2 0.5%, conclusion of most investigators", "value": "effective"},
      {"measurement": "adverse events following topical ocular use", "setting": "seborrheic blepharitis; in vivo", "value": "superficial punctate keratitis and conjunctivitis"},
      {"measurement": "safe concentration of ophthalmic preparation for use in humans", "setting": "seborrheic blepharitis; in vivo", "value": 0.5, "unit": "%"},
      {"measurement": "health outcomes by OSDI, VAS and SPEED", "setting": "human subject; at least one patient, 1 wt. %, one month of treatment", "value": "improved health outcomes"},
      {"measurement": "keratitis", "setting": "human subject; in vivo", "value": "Keratitis is not observed"},
      {"measurement": "patients noting symptoms of keratitis", "setting": "human subject; in vivo", "value": "four"}
    ]}
  ]
}
